One series relates to NF-κB activity. Briefly: NF-κB luciferase reporter assay in MDA-MB-231 cells overexpressing Bcl-3. Conditions: for effect on NF-κB activity: 1 μM, 24 hrs, MDA-MB-231 Bcl-3 over-expressing cells, vs DMSO control / Compound 1a; for IC50: Homo sapiens. The series is classed as cell-based, human. As for the experimental part: For NF-κB luciferase assays, cells were seeded into clear bottom black 96-well plates (Corning Inc., Lowell, US) in antibiotic free culture media in appropriate density. After 24 hrs, cells were transfected with 10 ng of 3×κB luciferase plasmid and 10 ng of pcDNA3.1-Lacl plasmid per well. Empty pcDNA3.1 plasmid was also included to normalize the total weight of DNA transfected to 100 ng. For positive and negative controls respectively, 10 ng of pGL3control or pGL3basic were transfected in place of 3×KB luciferase plasmid. Transfection was carried out using Lipofectamine LTX reagents (Invitrogen, Paisley, UK).
After 48 hrs post-transfection with luciferase reporter plasmid, the media was aspirated and cells were lyzed using 50 μl/well of Glo-lysis buffer (Promega, Southampton, UK). The plate was left on a rocker for 20 min to facilitate complete cell lysis. Then, 20 μl of lysate from each well was removed and transferred into a new clear bottom black well plate for measuring LacZ activity as a transfection efficiency control and followed by addition of 20 ul/well of Beta-Glo substrate (Promega, Southampton, UK) and cultivation at room temperature for at least 20 min. Subsequently, 30 μl/well of Bright-Glo luciferase substrate (Promega, Southampton, UK) was added to the original plate and asses immediately for luminescence activity. The luminescence produced from either reaction was read using a Flurostar Optima plate reader (BMG tabtech, Bucks, UK).
The effect of Compound 1a on NF-κB activity was determined by NF-κB luciferase assay in MDA-MB-231 and HEK-293 cells overexpressing Bcl-3 and HEK-293 cells overexpressing p52. Cells were cultivated with Compound 1a over a range of molarities for 24 hrs before being transfected with NF-κB luciferase reporter plasmid for 48 hrs and analyzed for NF-κB activity.
The effect of selected analogues on NF-κB activity was determined by NF-KB luciferase assay in MDA-MB-231 cells. MDA-MB-231 Bcl-3 over-expressing cells were cultivated with compounds from series 1-3 at 1 μM concentration for 24 hrs before being transfected with NF-κB luciferase reporter plasmid for 48 hrs together with controls and analyzed for NF-κB activity.
Based on the results for the series of analogues, we have established dose response curve for selected analogues from series 1 (If), from series 2 (2a and 2c) and from series 3 (3a) over a range of molarities. MDA-MB-231 Bcl-3 WT cells were cultivated with selected compounds from series 1-3 over a range of molarities for 24 hrs before being transfected with NF-κB luciferase reporter plasmid for 48 hrs together with controls and analyzed for NF-κB activity (FIG. 7).

The nature of series [1]: Cell Titre Blue viability assay, HEK-293. The series is classed as cell-based. Conditions: human, HEK-293 cells, HEK-293, 10 μM, vs DMSO. From the text:
In all assays, a DMSO control was always used.

Series [2] has as its system MDA-MB-231 cells overexpressing Bcl-3. Briefly: Boyden chamber cell motility assay. The series is classed as cell-based, human. Conditions: for IC50: Homo sapiens. As for the experimental part: The migratory or invasive capacity of human mammary cancer cell lines was assessed by the Boyden chamber assay. Cells were seeded in low serum media in a chamber with porous membrane (transparent polyethylene terephthalate (PET) membranes with 8 μm pores) as a solid support for motility assays or with a porous membrane coated with Matrigel Basement Membrane Matrix (BD BioCoat Growth factor reduced invasion chambers) for invasion assay. The cell insert was placed into a well with complete growth media, therefore cells are stimulated by a serum gradient to migrate or invade across the membrane through pores.
Total of 750 μl of complete growth media containing 10% of serum was added to appropriate wells of a 24 well cell culture insert companion plate (BD Biosciences, Oxford, UK). A cell culture insert (BD Biosciences, Oxford, UK) was then carefully placed into each well of the insert companion plate using tweezers. Cells were detached from tissue culture plates using 0.25% w/v Trypsin/EDTA (Invitrogen) and centrifuged at 13000 rpm for 5 min. Cells were washed twice in serum free media by resuspension and centrifugation. The appropriate number of cells (2×10^5 cells/ml for MDA-MB-231 cells) was resuspended in normal growth media containing only 0.10% serum. 350 μl of the cell suspension was added to the appropriate upper chambers of the cell culture inserts and plates were incubated for 24 hrs at 37° C. and 5% CO2.
After incubation, cells on membranes were fixed by replacing the media in the top and bottom sections of the chamber with 70% ice-cold ethanol (Fisher Scientific). Plates were incubated at −20° C. for at least an hour. After fixation, inserts were immersed in a tap water using tweezers to ensure all ethanol was removed. A moistened cotton wool bud was then used to mechanically remove all cells fixed on the upper side of the membranes. Cells were stained by individually immersing the inserts into filtered Harris' Haematoxylin (Sigma, Dorset, UK) for 1 min. Following this, inserts were washed in a beaker of tap water to remove the dye and immersed in 0.5% filtered Eosin (Sigma, Dorset, UK) for 2 min. Stained inserts were then washed again in a tap water.
Glycerol Gelatin (Sigma, Dorset, UK) was heated in a beaker of boiling water and once liquefied, a drop was placed onto an appropriately labelled microscope slide (R. A. Lamb, Loughborough, UK). Membranes were cut out of the insert and transferred onto the corresponding slide with tweezers. Glycerol Gelatin was added to the top of the membranes and a cover slip was placed on the slide under firm pressure. Mounted slides were left to air dry before being analyzed.
We therefore generated a dose response curve to determine an IC50 in this assay. MDA-MB-231 cells overexpressing Bcl-3 were cultivated with Compound 1a and DMSO control over a range of molarities for 24 hrs before being seeded onto Boyden migration chambers. The constant number of live cells present during this assay across samples was monitored by cell count.
Therefore we wanted to establish whether designed analogues have similar or improved ability to suppress cell migration. MDA-MB-231 Bcl-3 over-expressing cells were cultivated with selected analogues (1f, 2a, 2c, 3a) and DMSO control over a range of molarities for 24 hrs before being seeded onto the Boyden motility chambers. Migrated cells were visualized and counted after 24 hrs. The dose response curves were generated using GraphPad software (FIG. 9). The constant number of live cells present during this assay across samples was monitored by cell count.

Series [3] is described as follows: Cell Titre Blue viability assay, MDA-MB-231. Particulars: human, MDA-MB-231 cells.
Procedure: The viability of cells at experimental endpoints for particular assays was determined using the Cell Titre Blue reagent (Promega, Southampton, UK). This reagent measures the cellular metabolic activity using resazurin as an indicator dye. Viable cells, therefore metabolically active, will reduce resazurin into highly fluorescent resofurin. The resulting fluorescence levels are measured and indicate cell viability.
Cells were plated at low confluency into 96 well plates in 100 μl of complete growth media in triplicates and were incubated at 37° C. in 5% CO2 for the desired test exposure period. For each 100 μl of media in 96 well plates, 20 μl Cell Titre Blue reagent was added followed by incubation for an hour at 37° C. in 5% CO2. Fluorescence was then measured by setting excitation/emission wavelengths to 560/590 nm on a Flurostar Optima plate reader (BMG tabtech, Bucks, UK).
Cell toxicity was evaluated using the Cell Titre Blue viability assay over a range of molarities for 24 hrs.
Selected compounds were dissolved in DMSO and diluted to a highest concentration of 10 μM (0.1% DMSO). In all assays, a DMSO control was always used. Selected compounds were tested for cell toxicity in HEK-293 and MDA-MB-231 cells before being used in cell-based assays. Cell toxicity was evaluated using the Cell Titre Blue viability assay over a range of molarities for 24 hrs
Where [4] appears, read: MDA-MB-231 overexpressing Bcl-3, 24 hrs then reporter 48 hrs, read-out: IC50 NF-κB activity.
Setting [5] is: Table 3, MDA-MB-231, read-out: NF-κB assay (μM) IC50.
[6] abbreviates: MDA-MB-231, Table 3, read-out: Cell motility assay (μM) IC50.
[7] abbreviates: MDA-MB-231 overexpressing Bcl-3, 24 hrs pre-treatment, 24 hrs migration, read-out: IC50 cell motility (Boyden chamber).
Setting [8] is: MDA-MB-231 Bcl-3 WT, 24 hrs then reporter 48 hrs, read-out: IC50 NF-κB activity.

Entries after “also recorded” stand apart in the source; their conditions may differ. Where two headings read alike, the source gives them in different places.

On to `O=C(Nc1ccccc1C(=O)NCCN1CCOCC1)c1ccccc1F` [Compound 1a, 2-[(2-fluorobenzoyl)amino]-N-(2-morpholin-4-ylethyl)benzamide], for which the “effect on NF-κB activity” value in the series on NF-κB activity is recorded as “significant decrease; also recorded: most potent suppression of NF-κB activity”. Besides, the IC50 (as a rule, the point on the concentration scale where inhibition reaches its midpoint) in the series with NF-κB activity (setting [4]) came to 0.0494 µM; in the series with NF-κB activity (setting [5]) it was 0.0454 µM; in series [2] (setting [6]), 0.31 µM; in series [2] (setting [7]) it was 0.31 µM. Moreover, the viability at 24 h, 10 µM in series [1] and in series [3] was over 70% in each case. Further, the migration ability entry in series [2] (MDA-MB-231 cells, 10 μM) is recorded as “significantly suppressed migration ability”. Moreover, in series [3], the viability (usually the share of living cells, or the viability signal relative to a control) at 24 h, 1 mM is 72%.

With `COc1ccc(C(=O)Nc2ccccc2C(=O)NCCN2CCOCC2)cc1` [Compound 1f, 2-[(4-methoxybenzoyl)amino]-N-(2-morpholin-4-ylethyl)benzamide], the “effect on NF-κB activity” value in the series with NF-κB activity is given as “significant decrease”. The IC50 in the series on NF-κB activity (setting [4]) came to 0.00697 µM; in the series on NF-κB activity (setting [5]), 0.00697 µM; in series [2] (setting [6]), 0.0289 µM; in series [2] (setting [7]), 0.0289 µM. Further, the viability at 24 h, 10 µM in series [1] and in series [3] was over 70% each time. Moreover, the cell migration entry in series [2] (10 nM concentration) is “below 50%”. For the same compound, in series [3], the half-maximal effective concentration (EC50) (commonly the midpoint of the concentration-response curve) at 24 h is 781000 nM.

In the case of `O=C(Nc1ccccc1C(=O)NCCCN1CCOCC1)c1ccccc1F` [Compound 2a], the “effect on NF-κB activity” value with NF-κB activity is given as “significantly decreased NF-κB activity; also recorded: comparable activity with Compound 1a”. The IC50 in the series on NF-κB activity (setting [8]) was found to be 2.5 µM; with NF-κB activity (setting [5]), 2.5 µM; in series [2] (setting [6]), 1.33 µM; in series [2] (MDA-MB-231 overexpressing Bcl-3, read-out: IC50 cell motility (Boyden chamber)), 1.33 µM. Besides, the viability at 24 h, 10 µM in series [1] and in series [3] was over 70% in each case.

With `COc1cccc(C(=O)NCCN2CCOCC2)c1NC(=O)c1ccccc1F` [Compound 3a, 2-[(2-fluorobenzoyl)amino]-3-methoxy-N-(2-morpholin-4-ylethyl) benzamide], the “effect on NF-κB activity” value with NF-κB activity is recorded as “comparable effect on NF-κB activity with Compound 1a”. Also, the half-maximal inhibitory concentration (IC50) with NF-κB activity (setting [8]) amounted to 1.07 µM; with NF-κB activity (setting [5]) it was 1.07 µM; in series [2] (setting [6]), 0.9 µM; in series [2] (setting [7]), 0.9 µM. In addition, the viability at 24 h, 10 µM in series [1] and in series [3] was over 70% throughout.

The values above are taken from patent US20220017478A1, “2-BENZOYLAMINOBENZAMIDE DERIVATIVES AS BCL-3 INHIBITORS” (University College Cardiff Consultants Limited, priority 2013, published 2022).
